Assay results taken from article PMC3678123 (Bioorganic & medicinal chemistry letters, 2013).
“Also recorded” adds a separate entry of the source.

Experiments:
DAAO = settings: cited from earlier work
recombinant human DAAO = recombinant human DAAO (Homo sapiens, UniProt P14920); experiment: Inhibition of recombinant human DAAO; format: biochemical; settings: qualitative statement
Sequence of recombinant human DAAO (P14920 whole entry): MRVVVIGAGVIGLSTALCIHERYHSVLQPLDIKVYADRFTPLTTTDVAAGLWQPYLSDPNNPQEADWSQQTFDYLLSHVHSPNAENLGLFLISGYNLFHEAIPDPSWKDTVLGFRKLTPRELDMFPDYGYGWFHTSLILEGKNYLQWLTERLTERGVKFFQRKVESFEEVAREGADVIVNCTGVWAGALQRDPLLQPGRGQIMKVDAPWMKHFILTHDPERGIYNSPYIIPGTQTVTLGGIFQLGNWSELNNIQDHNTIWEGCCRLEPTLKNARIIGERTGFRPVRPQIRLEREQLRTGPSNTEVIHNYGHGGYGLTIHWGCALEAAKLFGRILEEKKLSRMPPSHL

Compound | IC50 (DAAO) | DAAO inhibitory potency (in words) (recombinant human DAAO)
O=c1oc2ccccc2cc1O [2b, 3-hydroxychromen-2-one] | 440 nM | 
O=C(O)c1ccc[nH]1 [5a, pyrrole-2-carboxylic acid] | < 10000 nM | 
O=C(O)c1cc[nH]n1 [5b, 1H-pyrazole-3-carboxylic acid] | < 100000 nM | 
O=C(O)c1cc(CCc2ccccc2)c[nH]1 [5c] | < 1000 nM | 
O=C(O)c1cc(CCc2ccccc2)[nH]n1 [5d] | < 1000 nM | 
COc1coc(CO)cc1=O [6b] |  | complete loss of potency; also recorded: completely devoid of any inhibitory activity
COCc1cc(=O)c(O)co1 [9a] |  | significantly less potent than kojic acid
CCOCc1cc(=O)c(O)co1 [9b] |  | significantly less potent than kojic acid
O=c1cc(COc2ccccc2)occ1O [9c] |  | potency comparable or superior to that of kojic acid
O=c1cc(COCc2ccccc2)occ1O [9j] |  | dramatic loss of potency
O=c1cc(COC2CCCCO2)occ1O (stereo not drawn) [9k] |  | significantly less potent than kojic acid
Oc1noc2cc(Cl)ccc12 [compound 1, 6-chlorobenzo[d]isoxazol-3-ol] | 188 nM | 
O=c1[nH]c2c(F)cc(F)cc2n1O [compound 3, 4,6-Difluoro-1-hydroxy-1Hbenzo[d]imidazol-2(3H)-one] | 80 nM | 
O=c1cc(CCc2ccccc2)occ1O [compound 17, 5-hydroxy-2-phenethyl-4H-pyran-4-one] |  | slightly more potent than the ether counterpart 9c
O=c1ccn(CCc2ccccc2)cc1O [compound 19, 3-hydroxy-1-phenethyl-4(1H)-pyridinone] |  | no inhibitory activity
